Assay results published in PubChem BioAssay (NCI).
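Growth conditions: 96-well plates. Treatment: test compound, 48 hours, 5 concentrations. Analysis: linear interpolation between bracketing concentrations; unreached endpoints set to highest concentration. GI50 is the concentration that inhibits growth by half. TGI marks complete inhibition of growth.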

Experiments:
Test in all cases: inhibition of tumour cell growth, NCI panel, 48 h
[1] = tested on: A549 NSCLC
[2] = tested on: HCT-15 colon
[3] = tested on: HOP-62 NSCLC
[4] = tested on: LOX IMVI melanoma
[5] = tested on: M14 melanoma
[6] = tested on: MALME-3M melanoma
[7] = tested on: MDA-MB-231 breast
[8] = tested on: PC-3 prostate
[9] = tested on: SN12C renal
[10] = tested on: UO-31 renal

Row | Structure (SMILES) | TGI [1] [µM] | TGI [2] [µM] | TGI [3] [µM] | TGI [4] [µM] | TGI [5] [µM] | TGI [6] [µM] | TGI [7] [µM] | TGI [8] [µM] | TGI [9] [µM] | TGI [10] [µM] | GI50 [1] [µM] | GI50 [2] [µM] | GI50 [3] [µM] | GI50 [4] [µM] | GI50 [5] [µM] | GI50 [6] [µM] | GI50 [7] [µM] | GI50 [8] [µM] | GI50 [9] [µM] | GI50 [10] [µM]
1 | Cn1c(O)c(C(=O)Nc2ccc([N+](=O)[O-])cc2)c(=O)n(C)c1=S | 32.5 | 7.02 | 4.05 | > 24.9 | 22.9 | 5.03 | 6.12 | 5.34 | > 70.7 | 12.8 | – | – | – | – | – | – | – | – | – | –
2 | CC1(C)OCN(c2ccc(Cl)cc2)Cn2c1nc1ccccc12 | > 100 | > 100 | > 100 | > 100 | > 100 | > 100 | > 100 | > 100 | > 100 | 97.1 | – | – | – | – | – | – | – | – | – | –
3 | N#Cc1nc(-c2ccccc2)oc1S(=O)(=O)N1CCOCC1 | > 100 | 3.39 | > 100 | 2.91 | 7.42 | 3.15 | 29.9 | 20.8 | 17.1 | 2.89 | 27.9 | 1.45 | 34.7 | 1.46 | 2.26 | 1.59 | 14.1 | 5.79 | 4.12 | 1.51
4 | CC(=O)/C(C)=N/N/C(N)=N\S(=O)(=O)c1cc(C(=O)Nc2ccccc2)c(Cl)cc1SCc1ccccc1 | > 100 | > 100 | 0.385 | > 100 | 3.95 | > 100 | > 100 | > 100 | > 100 | > 100 | 30.5 | > 100 | 0.0554 | 4.83 | 1.08 | > 100 | 5.94 | > 100 | 28.2 | 29.6
5 | COc1ccc(/C=C\c2cc(OC)c(OC)c(OC)c2)c(NS(=O)(=O)c2ccc(C)cc2)c1O | > 100 | > 81.6 | > 100 | > 100 | > 33.2 | > 100 | 29.9 | > 100 | > 76.2 | > 65.8 | 0.0473 | 0.0395 | 1.29 | 0.0509 | 0.0307 | 16.8 | 0.0516 | 0.04 | 0.0736 | 0.335
6 | COc1ccc(/C=C2\N=C3SC=C(N)N3C2=O)cc1 | 15.6 | 3.98 | 15.7 | 2.43 | 4.73 | 1.52 | 3.63 | 3.57 | 7.35 | 1.61 | 1.64 | 0.817 | 2.23 | 0.964 | 1.21 | 0.23 | 1.05 | 0.559 | 1.57 | 0.266
7 | CN(Cc1cnc2nc(N)nc(N)c2n1)c1ccc(C(=O)NC(CCC(=O)O)C(=O)O)cc1 (stereo not given) | > 100 | > 100 | > 100 | > 100 | > 100 | > 100 | > 100 | > 100 | > 100 | > 100 | 0.0605 | 0.0623 | 0.394 | 0.0372 | 0.0777 | 43 | > 24 | 2.56 | 0.0595 | 0.27
8 | C=C(C)[C@H]1CC/C(C)=C/CCC(C)C(=O)CC/C(CO)=C\[C@@H]1O (stereo not given in full) | > 100 | > 100 | > 100 | > 100 | > 100 | > 100 | > 100 | > 100 | > 100 | > 100 | > 100 | 5.47 | > 100 | 57.3 | 87.7 | 55.3 | > 100 | 76.3 | > 100 | > 100
9 | O=c1[nH]c(-c2ccc(C(F)(F)F)cc2)nc2c1CSCC2 | > 100 | > 100 | 51.2 | > 100 | > 100 | > 100 | > 100 | > 100 | > 100 | > 67.4 | 32.9 | > 100 | 17.5 | > 71.1 | 68.7 | 30.9 | 40.4 | > 77.3 | > 100 | 5.43
10 | O=C(NNS(=O)(=O)c1cc(C(F)(F)F)cc(C(F)(F)F)c1)c1cnn(-c2ccc(Cl)cc2)c1C(F)(F)F | 33.2 | 37.5 | 34.3 | 36.5 | 30.9 | 34.3 | 40.3 | 32.8 | 34.8 | 31.7 | 13.7 | 16 | 18.2 | 17 | 16.3 | 16.9 | 19.6 | 16.4 | 17.2 | 15.8
11 | CC/C=C\CCC/C=C1/C(=O)C=C[C@@H]1C/C=C\CCCC(=O)O | 32.7 | 4.52 | 22 | 3.22 | 17.3 | 26.6 | 22.5 | 9.82 | 8.5 | 5.58 | 12.8 | 1.93 | 7.61 | 1.46 | 3.89 | 8.66 | 5.55 | 3.64 | 3.05 | 2.16
12 | COc1ccc(/C=C2\COc3ccc(-c4ccccc4)cc3C2=O)cc1O | 18.9 | 4.37 | 19.4 | 3.87 | 14.6 | 4.31 | 20.2 | > 100 | 14.5 | 16.1 | 2.96 | 1.69 | 5.83 | 1.85 | 3.41 | 1.04 | 3.98 | 3.41 | 3.78 | 4.16
